# Source: ChEMBL document CHEMBL5620355, “Discovery of intracellular self-assembly protein degraders driven by tumor-specific activatable bioorthogonal reaction” (Eur J Med Chem, 2023)
# Activity calls are given as the source filed them. The rule behind the calls is not given here.
# Key:
# [1] = biological target: Serine/threonine-protein kinase B-raf (Homo sapiens) (UniProt P15056); assay: Induction of BRAF degradation in human U87 cells at 10 uM incubated for 48 hrs by Western blot analysis; format: cell-based
# Serine/threonine-protein kinase B-raf (Homo sapiens), sequence (P15056 whole entry): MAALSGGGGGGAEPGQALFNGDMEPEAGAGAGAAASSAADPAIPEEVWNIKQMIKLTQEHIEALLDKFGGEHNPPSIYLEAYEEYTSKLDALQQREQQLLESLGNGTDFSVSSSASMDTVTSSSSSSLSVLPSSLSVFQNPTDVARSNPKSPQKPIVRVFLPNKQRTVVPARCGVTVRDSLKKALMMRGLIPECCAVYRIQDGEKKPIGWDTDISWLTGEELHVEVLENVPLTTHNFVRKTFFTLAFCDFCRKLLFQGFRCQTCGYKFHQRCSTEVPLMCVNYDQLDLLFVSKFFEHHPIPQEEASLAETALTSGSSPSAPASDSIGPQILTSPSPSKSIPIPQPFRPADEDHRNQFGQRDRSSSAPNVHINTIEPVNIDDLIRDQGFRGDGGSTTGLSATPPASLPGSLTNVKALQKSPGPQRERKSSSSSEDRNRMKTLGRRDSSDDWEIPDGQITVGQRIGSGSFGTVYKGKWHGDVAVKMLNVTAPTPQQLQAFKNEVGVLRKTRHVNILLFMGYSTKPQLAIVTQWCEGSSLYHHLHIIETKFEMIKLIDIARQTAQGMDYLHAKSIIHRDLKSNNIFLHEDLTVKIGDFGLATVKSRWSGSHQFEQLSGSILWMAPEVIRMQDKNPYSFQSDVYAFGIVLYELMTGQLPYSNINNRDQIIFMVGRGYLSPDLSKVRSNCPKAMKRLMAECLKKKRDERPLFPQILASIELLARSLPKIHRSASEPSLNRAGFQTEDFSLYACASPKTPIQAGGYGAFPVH
# U-87 MG [2] = assay: Induction of apoptosis in human U87 cells assessed as necrotic cells at 5 uM incubated for 48 hrs in presence of 4-(4-(3-(4-chloro-3-(trifluoromethyl)phenyl)ureido)phenoxy)-N-(prop-2-yn-1-yl)picolinamide by Annexin V-FLTC/PI staining based flow cytometry (reference value: 0.60 %); format: functional, U-87MG ATCC
# HEK293 [3] = assay: Cytotoxicity against HEK293 cells at high concentration incubated for 48 hrs in presence of 4-(4-(3-(4-chloro-3-(trifluoromethyl)phenyl)ureido)phenoxy)-N-(prop-2-yn-1-yl)picolinamide by MTT assay; format: toxicity, cell-based; conditions: human, hek293, 48 h
# [4] = Stability of compound in PBS by HPLC analysis; format: physicochemical; conditions: buffer
# U-87 MG [5] = assay: Induction of apoptosis in human U87 cells assessed as necrotic cells at 10 uM incubated for 48 hrs in presence of 4-(4-(3-(4-chloro-3-(trifluoromethyl)phenyl)ureido)phenoxy)-N-(prop-2-yn-1-yl)picolinamide by Annexin V-FLTC/PI staining based flow cytometry (reference value: 0.60 %); format: functional, U-87MG ATCC
# HEK293 [6] = assay: Cytotoxicity against HEK293 cells at low concentration incubated for 48 hrs in presence of 4-(4-(3-(4-chloro-3-(trifluoromethyl)phenyl)ureido)phenoxy)-N-(prop-2-yn-1-yl)picolinamide by MTT assay; format: toxicity, cell-based; conditions: human, hek293, 48 h
# U-87 MG [7] = assay: Induction of apoptosis in human U87 cells assessed as viable cells at 0.1 uM incubated for 48 hrs in presence of 4-(4-(3-(4-chloro-3-(trifluoromethyl)phenyl)ureido)phenoxy)-N-(prop-2-yn-1-yl)picolinamide by Annexin V-FLTC/PI staining based flow cytometry (reference value: 86.74 %); format: functional, U-87MG ATCC; conditions: read-out: Activity
# U-87 MG [8] = assay: Induction of apoptosis in human U87 cells assessed as late apoptotic cells at 5 uM incubated for 48 hrs in presence of 4-(4-(3-(4-chloro-3-(trifluoromethyl)phenyl)ureido)phenoxy)-N-(prop-2-yn-1-yl)picolinamide by Annexin V-FLTC/PI staining based flow cytometry (reference value: 3.71 %); format: functional, U-87MG ATCC
# U-87 MG [9] = assay: (§1) Induction of apoptosis in human U87 cells assessed as necrotic cells at 10 uM incubated for 48 hrs in presence of (2S,4R)-1-((S)-2-(5-azidopentanamido)-3,3-dimethylbutanoyl)-4-hydroxy-N-(4-(4-methylthiazol-5-yl)benzyl)pyrrolidine-2-carboxamide by Annexin V-FLTC/PI staining based flow cytometry (reference value: 0.60 %); format: functional, U-87MG ATCC
# U-87 MG [10] = assay: (§2) Induction of apoptosis in human U87 cells assessed as viable cells at 10 uM incubated for 48 hrs in presence of (2S,4R)-1-((S)-2-(5-azidopentanamido)-3,3-dimethylbutanoyl)-4-hydroxy-N-(4-(4-methylthiazol-5-yl)benzyl)pyrrolidine-2-carboxamide by Annexin V-FLTC/PI staining based flow cytometry (reference value: 86.74 %); format: functional, U-87MG ATCC; conditions: read-out: Activity
# U-87 MG [11] = assay: as §2, with “1” for “10”; format: functional, U-87MG ATCC; conditions: read-out: Activity
# U-87 MG [12] = assay: as §1, with “1” for “10”; format: functional, U-87MG ATCC
# U-87 MG [13] = assay: (§3) Induction of apoptosis in human U87 cells assessed as late apoptotic cells at 10 uM incubated for 48 hrs in presence of (2S,4R)-1-((S)-2-(5-azidopentanamido)-3,3-dimethylbutanoyl)-4-hydroxy-N-(4-(4-methylthiazol-5-yl)benzyl)pyrrolidine-2-carboxamide by Annexin V-FLTC/PI staining based flow cytometry (reference value: 3.71 %); format: functional, U-87MG ATCC
# U-87 MG [14] = assay: as §3, with “early” for “late”, “1” for “10”, “8.95” for “3.71”; format: functional, U-87MG ATCC
# [15] = biological target: T1, Ephrin type-B receptor 4 (Homo sapiens) (UniProt P54760); assay: Induction of EphB4 degradation in human U87 cells at 10 uM incubated for 48 hrs in presence of 4-azido-N-(2-(2,6-dioxopiperidin-3-yl)-1,3-dioxoisoindolin-4-yl)butanamide by Western blot analysis; format: cell-based
# T1 sequence (whole entry): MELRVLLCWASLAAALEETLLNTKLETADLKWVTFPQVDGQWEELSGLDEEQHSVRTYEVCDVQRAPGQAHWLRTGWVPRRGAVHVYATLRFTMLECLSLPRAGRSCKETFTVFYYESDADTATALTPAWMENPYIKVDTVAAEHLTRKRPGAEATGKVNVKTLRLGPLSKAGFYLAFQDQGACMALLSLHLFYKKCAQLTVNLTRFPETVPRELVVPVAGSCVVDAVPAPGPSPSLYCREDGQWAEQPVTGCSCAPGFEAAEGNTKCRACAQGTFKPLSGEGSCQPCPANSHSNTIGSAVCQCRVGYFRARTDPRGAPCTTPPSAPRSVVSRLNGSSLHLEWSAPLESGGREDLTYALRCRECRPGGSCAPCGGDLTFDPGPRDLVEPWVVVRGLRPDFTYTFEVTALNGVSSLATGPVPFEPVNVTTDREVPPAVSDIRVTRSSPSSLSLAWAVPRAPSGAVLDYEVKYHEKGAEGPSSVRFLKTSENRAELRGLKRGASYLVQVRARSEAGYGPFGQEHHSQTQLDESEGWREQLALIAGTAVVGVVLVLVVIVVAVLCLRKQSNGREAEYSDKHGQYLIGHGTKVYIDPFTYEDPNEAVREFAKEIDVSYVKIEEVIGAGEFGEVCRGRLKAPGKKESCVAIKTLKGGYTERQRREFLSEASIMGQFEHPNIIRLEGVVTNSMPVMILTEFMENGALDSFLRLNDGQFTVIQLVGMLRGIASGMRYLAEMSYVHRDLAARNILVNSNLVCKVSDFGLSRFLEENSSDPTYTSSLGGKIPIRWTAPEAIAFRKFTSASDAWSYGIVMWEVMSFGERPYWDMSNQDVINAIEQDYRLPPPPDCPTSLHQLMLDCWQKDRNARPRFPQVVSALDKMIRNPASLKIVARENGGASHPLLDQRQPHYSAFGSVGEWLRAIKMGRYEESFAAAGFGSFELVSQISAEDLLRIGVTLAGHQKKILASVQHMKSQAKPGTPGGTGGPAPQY
# A549 = assay: Antiproliferative activity against human A549 cells incubated for 48 hrs in presence of (2S,4R)-1-((S)-2-(5-azidopentanamido)-3,3-dimethylbutanoyl)-4-hydroxy-N-(4-(4-methylthiazol-5-yl)benzyl)pyrrolidine-2-carboxamide by MTT assay; format: functional, cell-based; conditions: A549, 48 h
# [16] = biological target: Vascular endothelial growth factor receptor 2 (Homo sapiens) (UniProt P35968); assay: Induction of VEGFR2 degradation in human U87 cells upto 10 uM incubated for 48 hrs by Western blot analysis; format: cell-based
# Vascular endothelial growth factor receptor 2 (Homo sapiens), sequence (P35968 whole entry): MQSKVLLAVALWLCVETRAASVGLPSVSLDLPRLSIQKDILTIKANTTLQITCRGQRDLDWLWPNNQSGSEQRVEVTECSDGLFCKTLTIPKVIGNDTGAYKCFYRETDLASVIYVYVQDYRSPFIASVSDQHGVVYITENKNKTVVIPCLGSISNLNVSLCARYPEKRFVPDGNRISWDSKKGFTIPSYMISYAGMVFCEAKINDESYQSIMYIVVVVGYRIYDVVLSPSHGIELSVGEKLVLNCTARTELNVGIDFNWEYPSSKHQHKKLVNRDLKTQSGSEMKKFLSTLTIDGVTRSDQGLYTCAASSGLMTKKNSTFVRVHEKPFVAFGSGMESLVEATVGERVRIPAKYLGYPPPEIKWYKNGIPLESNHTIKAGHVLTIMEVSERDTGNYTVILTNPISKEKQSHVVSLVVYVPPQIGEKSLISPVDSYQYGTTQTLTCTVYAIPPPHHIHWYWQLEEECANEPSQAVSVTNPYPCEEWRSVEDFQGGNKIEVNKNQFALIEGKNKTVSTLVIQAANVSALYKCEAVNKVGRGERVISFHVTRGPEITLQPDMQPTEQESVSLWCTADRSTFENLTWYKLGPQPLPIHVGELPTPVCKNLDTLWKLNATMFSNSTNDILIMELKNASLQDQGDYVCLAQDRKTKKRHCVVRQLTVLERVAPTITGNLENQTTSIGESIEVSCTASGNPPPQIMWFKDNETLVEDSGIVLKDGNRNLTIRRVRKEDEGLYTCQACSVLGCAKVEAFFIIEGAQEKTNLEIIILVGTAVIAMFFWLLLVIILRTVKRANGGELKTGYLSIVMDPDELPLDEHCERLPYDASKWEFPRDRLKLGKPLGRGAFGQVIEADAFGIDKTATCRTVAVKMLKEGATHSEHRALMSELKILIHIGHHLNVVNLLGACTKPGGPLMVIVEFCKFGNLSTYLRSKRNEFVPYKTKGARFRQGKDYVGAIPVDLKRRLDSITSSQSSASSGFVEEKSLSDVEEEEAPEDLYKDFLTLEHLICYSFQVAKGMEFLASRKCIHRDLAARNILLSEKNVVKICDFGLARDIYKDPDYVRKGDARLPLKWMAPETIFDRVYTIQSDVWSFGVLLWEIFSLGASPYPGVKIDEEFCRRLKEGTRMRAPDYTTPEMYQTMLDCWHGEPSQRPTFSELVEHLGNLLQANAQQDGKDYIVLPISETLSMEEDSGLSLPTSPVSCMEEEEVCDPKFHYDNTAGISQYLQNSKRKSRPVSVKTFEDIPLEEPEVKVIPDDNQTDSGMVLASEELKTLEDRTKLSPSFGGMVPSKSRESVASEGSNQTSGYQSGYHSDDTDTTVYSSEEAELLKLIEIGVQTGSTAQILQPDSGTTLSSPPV
# HEK293 [17] = assay: Cytotoxicity against HEK293 cells at high concentration incubated for 48 hrs in presence of 4-azido-N-(2-(2,6-dioxopiperidin-3-yl)-1,3-dioxoisoindolin-4-yl)butanamide by MTT assay; format: toxicity, cell-based; conditions: human, hek293, 48 h
# [18] = biological target: T1, Ephrin type-B receptor 4 (Homo sapiens); assay: Induction of EphB4 degradation in human U87 cells at 2 uM incubated for 48 hrs in presence of (2S,4R)-1-((S)-2-(5-azidopentanamido)-3,3-dimethylbutanoyl)-4-hydroxy-N-(4-(4-methylthiazol-5-yl)benzyl)pyrrolidine-2-carboxamide by Western blot analysis; format: cell-based
Activity [1],Stability [4],Activity [15],IC50 (A549),Activity [16],Activity [18],SMILES,Activity (U-87 MG [2]),Activity (HEK293 [3]),Activity (U-87 MG [5]),Activity (HEK293 [6]),viability at 0.1 µM (U-87 MG [7]),Activity (U-87 MG [8]),Activity (U-87 MG [9]),viability at 10 µM (U-87 MG [10]),viability at 1 µM (U-87 MG [11]),Activity (U-87 MG [12]),Activity (U-87 MG [13]),Activity (U-87 MG [14]),Activity (HEK293 [17])
Active,Unstable,–,–,–,–,[N-]=[N+]=NCCCC(=O)Nc1cccc2c1C(=O)N(C1CCC(=O)NC1=O)C2=O (centres undefined),25.22%,Toxic,25.6%,Non-Toxic,85.3%,73.25%,–,–,–,–,–,–,–
–,–,Active,1.06 µM,inactive,Active,C#CCNC(=O)c1cc(Oc2ccc(NC(=O)Nc3ccc(Cl)c(C(F)(F)F)c3)cc2)ccn1,–,–,–,–,–,–,25.6%,1.74%,81.6%,1.26%,72.58%,11.69%,Toxic
